From ChEMBL document CHEMBL6127144, “Optimization of a Piperidine CD4-Mimetic Scaffold Sensitizing HIV-1 Infected Cells to Antibody-Dependent Cellular Cytotoxicity” (ACS Med Chem Lett, 2024)
Activity calls are given as the source filed them. The calls are words filed in the database; no cut-off is given here.

tested on: CD4+ T cell; experiment: Binding affinity to 17b Antibody in HIV-1 JRFL infected human primary CD4+ T cell co-cultured with KHYG-1 cells assessed as antibody driven cell cytotoxicity at 50 uM incubated for 4 to 6 hrs by Alexa Fluor 647 staining based flow cytometric analysis; conditions: time 4-6 hrs

| SMILES | Activity |
| --- | --- |
| N=C(N)NCC(=O)N1CCN(C(=O)N2CCC[C@H](C(=O)Nc3ccc(Cl)c(F)c3)C2)CC1 | Active |
| N=C(N)N1CCC[C@@H]1C(=O)N1CCN(C(=O)N2CCC[C@H](C(=O)Nc3ccc(Cl)c(F)c3)C2)CC1 | Active |

tested on: CD4+ T cell; experiment: Binding affinity to 17b Antibody in HIV-1 CH58TF infected human primary CD4+ T cell co-cultured with KHYG-1 cells assessed as antibody driven cell cytotoxicity at 50 uM incubated for 4 to 6 hrs by Alexa Fluor 647 staining based flow cytometric analysis; conditions: time 4-6 hrs

| SMILES | Activity |
| --- | --- |
| N=C(N)NCC(=O)N1CCN(C(=O)N2CCC[C@H](C(=O)Nc3ccc(Cl)c(F)c3)C2)CC1 | Active |
| N=C(N)N1CCC[C@@H]1C(=O)N1CCN(C(=O)N2CCC[C@H](C(=O)Nc3ccc(Cl)c(F)c3)C2)CC1 | Active |
| N=C(N)NCCC[C@H](N)C(=O)N1CCN(C(=O)N2CCC[C@H](C(=O)Nc3ccc(Cl)c(F)c3)C2)CC1 | Active |
| NCCNC(=O)N1CCC[C@H](C(=O)Nc2ccc(Cl)c(F)c2)C1 | Active |
| CNCc1ccc2c(c1)C[C@H](CNC(=N)N)[C@H]2NC(=O)C(=O)Nc1ccc(Cl)c(F)c1 | Active |

tested on: Human immunodeficiency virus 1; experiment: Antiviral activity against HIV-1 JRFL infected in human primary CD4+ T cell co-cultured with KHYG-1 cells assessed as inhibition of viral growth at 50 uM incubated for 4 to 6 hrs in presence of HIV+ plasma by flow cytometric analysis; type: functional, organism-based; conditions: time 4-6 hrs

| SMILES | Activity |
| --- | --- |
| N=C(N)NCC(=O)N1CCN(C(=O)N2CCC[C@H](C(=O)Nc3ccc(Cl)c(F)c3)C2)CC1 | inactive |
| N=C(N)N1CCC[C@@H]1C(=O)N1CCN(C(=O)N2CCC[C@H](C(=O)Nc3ccc(Cl)c(F)c3)C2)CC1 | inactive |

tested on: CD4+ T cell; experiment: Binding affinity to 17b Antibody in HIV-1 JRFL infected human primary CD4+ T cell by measuring median fluorescence intensity at 50 uM incubated for 48 hrs by Alexa Fluor 647 staining based flow cytometric analysis; conditions: not given

| SMILES | Flu intensity |
| --- | --- |
| O=C(Nc1ccc(Cl)c(F)c1)[C@H]1CCCN(C(=O)N2CCOCC2)C1 | 1.05 |
| NC(=O)[C@@H]1CCCN1C(=O)N1CCC[C@H](C(=O)Nc2ccc(Cl)c(F)c2)C1 | 1.01 |
| O=C(Nc1ccc(Cl)c(F)c1)[C@H]1CCCN(C(=O)c2ccncc2)C1 | 0.95 |
| NC(=O)C[C@H](N)C(=O)N1CCN(C(=O)N2CCC[C@H](C(=O)Nc3ccc(Cl)c(F)c3)C2)CC1 | 1.53 |
| COCCN1CCN(C(=O)N2CCC[C@H](C(=O)Nc3ccc(Cl)c(F)c3)C2)CC1 | 1.43 |
| CCN1CCN(C(=O)N2CCC[C@H](C(=O)Nc3ccc(Cl)c(F)c3)C2)CC1 | 1.36 |
| CC(=O)NCSC[C@H](N)C(=O)N1CCN(C(=O)N2CCC[C@H](C(=O)Nc3ccc(Cl)c(F)c3)C2)CC1 | 1.55 |
| CN(C)CCCN1CCN(C(=O)N2CCC[C@H](C(=O)Nc3ccc(Cl)c(F)c3)C2)CC1 | 1.42 |
| O=C(Nc1ccc(Cl)c(F)c1)[C@H]1CCCN(C(=O)N2CCN(CC(=O)N3CCCC3)CC2)C1 | 1.3 |
| N=C(N)NCCC[C@H](N)C(=O)N1CCN(C(=O)N2CCC[C@H](C(=O)Nc3ccc(Cl)c(F)c3)C2)CC1 | 1.61 |

tested on: Human immunodeficiency virus 1; experiment: Antiviral activity against HIV-1 CH58TF infected in human TZM-bl cells assessed as inhibition of viral growth incubated for 48 hrs by luminometer based neutralization assay; type: functional, organism-based; conditions: Human immunodeficiency virus 1, CH58TF

| SMILES | IC50 |
| --- | --- |
| N=C(N)NCC(=O)N1CCN(C(=O)N2CCC[C@H](C(=O)Nc3ccc(Cl)c(F)c3)C2)CC1 | 150 nM |
| N=C(N)N1CCC[C@@H]1C(=O)N1CCN(C(=O)N2CCC[C@H](C(=O)Nc3ccc(Cl)c(F)c3)C2)CC1 | 140 nM |
| N=C(N)NCCC[C@H](N)C(=O)N1CCN(C(=O)N2CCC[C@H](C(=O)Nc3ccc(Cl)c(F)c3)C2)CC1 | 220 nM |
| NCCNC(=O)N1CCC[C@H](C(=O)Nc2ccc(Cl)c(F)c2)C1 | 1770 nM |
| CNCc1ccc2c(c1)C[C@H](CNC(=N)N)[C@H]2NC(=O)C(=O)Nc1ccc(Cl)c(F)c1 | 70 nM |

tested on: Human immunodeficiency virus 1; experiment: Antiviral activity against HIV-1 AD8 infected in human TZM-bl cells assessed as inhibition of viral growth incubated for 48 hrs by luminometer based neutralization assay; type: functional, organism-based; conditions: Human immunodeficiency virus 1, AD8, TZM-bl

| SMILES | IC50 |
| --- | --- |
| NC(=O)C[C@H](N)C(=O)N1CCN(C(=O)N2CCC[C@H](C(=O)Nc3ccc(Cl)c(F)c3)C2)CC1 | 6210 nM |
| N=C(N)NCC(=O)N1CCN(C(=O)N2CCC[C@H](C(=O)Nc3ccc(Cl)c(F)c3)C2)CC1 | 1990 nM |
| CC(=O)NCSC[C@H](N)C(=O)N1CCN(C(=O)N2CCC[C@H](C(=O)Nc3ccc(Cl)c(F)c3)C2)CC1 | 1860 nM |
| N=C(N)N1CCC[C@@H]1C(=O)N1CCN(C(=O)N2CCC[C@H](C(=O)Nc3ccc(Cl)c(F)c3)C2)CC1 | 2920 nM |
| N=C(N)NCCC[C@H](N)C(=O)N1CCN(C(=O)N2CCC[C@H](C(=O)Nc3ccc(Cl)c(F)c3)C2)CC1 | 1270 nM |
| NCCNC(=O)N1CCC[C@H](C(=O)Nc2ccc(Cl)c(F)c2)C1 | > 100000 nM |
| CNCc1ccc2c(c1)C[C@H](CNC(=N)N)[C@H]2NC(=O)C(=O)Nc1ccc(Cl)c(F)c1 | 950 nM |

tested on: CD4+ T cell; experiment: Binding affinity to 17b Antibody in HIV-1 AD8 infected human primary CD4+ T cell co-cultured with KHYG-1 cells assessed as antibody driven cell cytotoxicity at 50 uM incubated for 4 to 6 hrs by Alexa Fluor 647 staining based flow cytometric analysis; conditions: time 4-6 hrs

| SMILES | Activity |
| --- | --- |
| N=C(N)NCC(=O)N1CCN(C(=O)N2CCC[C@H](C(=O)Nc3ccc(Cl)c(F)c3)C2)CC1 | Active |
| CC(=O)NCSC[C@H](N)C(=O)N1CCN(C(=O)N2CCC[C@H](C(=O)Nc3ccc(Cl)c(F)c3)C2)CC1 | Active |
| N=C(N)N1CCC[C@@H]1C(=O)N1CCN(C(=O)N2CCC[C@H](C(=O)Nc3ccc(Cl)c(F)c3)C2)CC1 | Active |
| N=C(N)NCCC[C@H](N)C(=O)N1CCN(C(=O)N2CCC[C@H](C(=O)Nc3ccc(Cl)c(F)c3)C2)CC1 | Active |
| NCCNC(=O)N1CCC[C@H](C(=O)Nc2ccc(Cl)c(F)c2)C1 | inactive |

tested on: Human immunodeficiency virus 1; experiment: Antiviral activity against HIV-1 AD8 infected in human primary CD4+ T cell co-cultured with KHYG-1 cells assessed as inhibition of viral growth at 50 uM incubated for 4 to 6 hrs in presence of HIV+ plasma by flow cytometric analysis; type: functional, organism-based; conditions: time 4-6 hrs

| SMILES | Activity |
| --- | --- |
| N=C(N)N1CCC[C@@H]1C(=O)N1CCN(C(=O)N2CCC[C@H](C(=O)Nc3ccc(Cl)c(F)c3)C2)CC1 | Active |
| NCCNC(=O)N1CCC[C@H](C(=O)Nc2ccc(Cl)c(F)c2)C1 | inactive |

tested on: Moloney murine leukemia virus; experiment: Antiviral activity against Moloney murine leukemia virus infected in human TZM-bl cells assessed as inhibition of viral growth incubated for 48 hrs by luminometer based neutralization assay; type: functional, organism-based; conditions: not given

| SMILES | IC50 |
| --- | --- |
| N=C(N)NCC(=O)N1CCN(C(=O)N2CCC[C@H](C(=O)Nc3ccc(Cl)c(F)c3)C2)CC1 | > 100 µM |
| N=C(N)N1CCC[C@@H]1C(=O)N1CCN(C(=O)N2CCC[C@H](C(=O)Nc3ccc(Cl)c(F)c3)C2)CC1 | > 100 µM |
| N=C(N)NCCC[C@H](N)C(=O)N1CCN(C(=O)N2CCC[C@H](C(=O)Nc3ccc(Cl)c(F)c3)C2)CC1 | > 100 µM |
| NCCNC(=O)N1CCC[C@H](C(=O)Nc2ccc(Cl)c(F)c2)C1 | > 100 µM |
| CNCc1ccc2c(c1)C[C@H](CNC(=N)N)[C@H]2NC(=O)C(=O)Nc1ccc(Cl)c(F)c1 | > 100 µM |

tested on: Human immunodeficiency virus 1; experiment: Antiviral activity against HIV-1 CH58TF infected in human primary CD4+ T cell co-cultured with KHYG-1 cells assessed as inhibition of viral growth at 50 uM incubated for 4 to 6 hrs in presence of HIV+ plasma by flow cytometric analysis; type: functional, organism-based; conditions: time 4-6 hrs

| SMILES | Activity |
| --- | --- |
| N=C(N)NCC(=O)N1CCN(C(=O)N2CCC[C@H](C(=O)Nc3ccc(Cl)c(F)c3)C2)CC1 | Active |
| N=C(N)N1CCC[C@@H]1C(=O)N1CCN(C(=O)N2CCC[C@H](C(=O)Nc3ccc(Cl)c(F)c3)C2)CC1 | Active |
| N=C(N)NCCC[C@H](N)C(=O)N1CCN(C(=O)N2CCC[C@H](C(=O)Nc3ccc(Cl)c(F)c3)C2)CC1 | Active |
| NCCNC(=O)N1CCC[C@H](C(=O)Nc2ccc(Cl)c(F)c2)C1 | Active |
| CNCc1ccc2c(c1)C[C@H](CNC(=N)N)[C@H]2NC(=O)C(=O)Nc1ccc(Cl)c(F)c1 | Active |

tested on: Human immunodeficiency virus 1; experiment: Antiviral activity against HIV-1 JRFL infected in human TZM-bl cells assessed as inhibition of viral growth incubated for 48 hrs by luminometer based neutralization assay; type: functional, organism-based; conditions: Human immunodeficiency virus 1, JRFL

| SMILES | IC50 |
| --- | --- |
| NC(=O)C[C@H](N)C(=O)N1CCN(C(=O)N2CCC[C@H](C(=O)Nc3ccc(Cl)c(F)c3)C2)CC1 | 24.6 µM |
| N=C(N)NCC(=O)N1CCN(C(=O)N2CCC[C@H](C(=O)Nc3ccc(Cl)c(F)c3)C2)CC1 | 10.7 µM |
| CC(=O)NCSC[C@H](N)C(=O)N1CCN(C(=O)N2CCC[C@H](C(=O)Nc3ccc(Cl)c(F)c3)C2)CC1 | 40 µM |
| N=C(N)N1CCC[C@@H]1C(=O)N1CCN(C(=O)N2CCC[C@H](C(=O)Nc3ccc(Cl)c(F)c3)C2)CC1 | 8.28 µM |
| N=C(N)NCCC[C@H](N)C(=O)N1CCN(C(=O)N2CCC[C@H](C(=O)Nc3ccc(Cl)c(F)c3)C2)CC1 | ≥ 72.6 µM |
| NCCNC(=O)N1CCC[C@H](C(=O)Nc2ccc(Cl)c(F)c2)C1 | > 100 µM |
| CNCc1ccc2c(c1)C[C@H](CNC(=N)N)[C@H]2NC(=O)C(=O)Nc1ccc(Cl)c(F)c1 | 4.6 µM |

tested on: CD4+ T cell; experiment: Binding affinity to 17b Antibody in HIV-1 AD8 infected human primary CD4+ T cell by measuring median fluorescence intensity at 50 uM incubated for 48 hrs by Alexa Fluor 647 staining based flow cytometric analysis; conditions: not given

| SMILES | Flu intensity |
| --- | --- |
| O=C(Nc1ccc(Cl)c(F)c1)[C@H]1CCCN(C(=O)N2CCOCC2)C1 | 1.49 |
| NC(=O)[C@@H]1CCCN1C(=O)N1CCC[C@H](C(=O)Nc2ccc(Cl)c(F)c2)C1 | 1.23 |
| O=C(Nc1ccc(Cl)c(F)c1)[C@H]1CCCN(C(=O)c2ccncc2)C1 | 1.25 |
| NC(=O)C[C@H](N)C(=O)N1CCN(C(=O)N2CCC[C@H](C(=O)Nc3ccc(Cl)c(F)c3)C2)CC1 | 2.14 |
| COCCN1CCN(C(=O)N2CCC[C@H](C(=O)Nc3ccc(Cl)c(F)c3)C2)CC1 | 1.28 |
| CCN1CCN(C(=O)N2CCC[C@H](C(=O)Nc3ccc(Cl)c(F)c3)C2)CC1 | 1.23 |
| CC(=O)NCSC[C@H](N)C(=O)N1CCN(C(=O)N2CCC[C@H](C(=O)Nc3ccc(Cl)c(F)c3)C2)CC1 | 1.75 |
| CN(C)CCCN1CCN(C(=O)N2CCC[C@H](C(=O)Nc3ccc(Cl)c(F)c3)C2)CC1 | 1.39 |
| O=C(Nc1ccc(Cl)c(F)c1)[C@H]1CCCN(C(=O)N2CCN(CC(=O)N3CCCC3)CC2)C1 | 1.52 |
| N=C(N)NCCC[C@H](N)C(=O)N1CCN(C(=O)N2CCC[C@H](C(=O)Nc3ccc(Cl)c(F)c3)C2)CC1 | 2.23 |

tested on: TZM; experiment: Cytotoxicity against human TZM-bl cells upto 100 uM incubated for 48 hrs by cell-titer glo luminescent assay; type: toxicity, cell-based; conditions: not given

| SMILES | Activity |
| --- | --- |
| N=C(N)NCC(=O)N1CCN(C(=O)N2CCC[C@H](C(=O)Nc3ccc(Cl)c(F)c3)C2)CC1 | Non-Toxic |
| N=C(N)N1CCC[C@@H]1C(=O)N1CCN(C(=O)N2CCC[C@H](C(=O)Nc3ccc(Cl)c(F)c3)C2)CC1 | Non-Toxic |
| N=C(N)NCCC[C@H](N)C(=O)N1CCN(C(=O)N2CCC[C@H](C(=O)Nc3ccc(Cl)c(F)c3)C2)CC1 | Non-Toxic |
